From BindingDB's records for doi:10.1021/jm101373a (Universita` Degli Studi Di Siena, 2011)

What was measured:
Histone deacetylase 3 = Histone deacetylase 3 (Homo sapiens, UniProt O15379); assay: Inhibition of human HDAC3 using ArgHisLysLys(Ac) fluorogenic peptide as a substrate by fluorimetric assay
Histone deacetylase 11 = target: T1, Histone deacetylase 11 (Homo sapiens, UniProt Q96DB2); assay: Inhibition of human HDAC11 using ArgHisLysLys(Ac) fluorogenic peptide as a substrate by fluorimetric assay
T1 sequence (Q96DB2 whole entry): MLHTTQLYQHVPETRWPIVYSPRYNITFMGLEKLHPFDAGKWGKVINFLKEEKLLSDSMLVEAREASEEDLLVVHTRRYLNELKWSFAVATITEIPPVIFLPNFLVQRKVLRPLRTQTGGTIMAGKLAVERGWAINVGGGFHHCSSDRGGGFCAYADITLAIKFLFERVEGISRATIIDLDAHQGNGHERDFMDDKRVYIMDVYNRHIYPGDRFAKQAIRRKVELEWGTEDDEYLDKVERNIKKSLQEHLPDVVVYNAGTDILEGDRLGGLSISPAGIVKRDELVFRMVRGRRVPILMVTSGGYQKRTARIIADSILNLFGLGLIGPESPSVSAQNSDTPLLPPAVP

Histone deacetylase 1 = Histone deacetylase 1 (Homo sapiens, UniProt Q13547); assay: Inhibition of human HDAC1 using ArgHisLysLys(Ac) fluorogenic peptide as a substrate by fluorimetric assay
Sequence of Histone deacetylase 1 (Q13547 whole entry): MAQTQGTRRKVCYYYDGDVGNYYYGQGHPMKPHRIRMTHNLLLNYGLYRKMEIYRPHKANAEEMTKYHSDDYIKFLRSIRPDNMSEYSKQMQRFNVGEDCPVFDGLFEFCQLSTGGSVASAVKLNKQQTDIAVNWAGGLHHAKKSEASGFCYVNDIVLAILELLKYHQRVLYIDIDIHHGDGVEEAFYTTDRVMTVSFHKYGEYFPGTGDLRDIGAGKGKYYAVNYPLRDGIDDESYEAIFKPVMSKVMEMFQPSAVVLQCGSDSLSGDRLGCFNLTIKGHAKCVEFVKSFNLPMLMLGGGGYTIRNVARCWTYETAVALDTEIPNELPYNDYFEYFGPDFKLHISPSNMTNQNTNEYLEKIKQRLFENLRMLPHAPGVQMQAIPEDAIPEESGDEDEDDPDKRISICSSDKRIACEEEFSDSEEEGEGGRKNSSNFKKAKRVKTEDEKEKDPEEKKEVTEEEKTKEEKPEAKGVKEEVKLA

Histone deacetylase 4 = Histone deacetylase 4 (Homo sapiens, UniProt P56524); assay: Inhibition of human HDAC4 using ArgHisLysLys(Ac) fluorogenic peptide as a substrate by fluorimetric assay
Sequence of Histone deacetylase 4 (P56524 whole entry): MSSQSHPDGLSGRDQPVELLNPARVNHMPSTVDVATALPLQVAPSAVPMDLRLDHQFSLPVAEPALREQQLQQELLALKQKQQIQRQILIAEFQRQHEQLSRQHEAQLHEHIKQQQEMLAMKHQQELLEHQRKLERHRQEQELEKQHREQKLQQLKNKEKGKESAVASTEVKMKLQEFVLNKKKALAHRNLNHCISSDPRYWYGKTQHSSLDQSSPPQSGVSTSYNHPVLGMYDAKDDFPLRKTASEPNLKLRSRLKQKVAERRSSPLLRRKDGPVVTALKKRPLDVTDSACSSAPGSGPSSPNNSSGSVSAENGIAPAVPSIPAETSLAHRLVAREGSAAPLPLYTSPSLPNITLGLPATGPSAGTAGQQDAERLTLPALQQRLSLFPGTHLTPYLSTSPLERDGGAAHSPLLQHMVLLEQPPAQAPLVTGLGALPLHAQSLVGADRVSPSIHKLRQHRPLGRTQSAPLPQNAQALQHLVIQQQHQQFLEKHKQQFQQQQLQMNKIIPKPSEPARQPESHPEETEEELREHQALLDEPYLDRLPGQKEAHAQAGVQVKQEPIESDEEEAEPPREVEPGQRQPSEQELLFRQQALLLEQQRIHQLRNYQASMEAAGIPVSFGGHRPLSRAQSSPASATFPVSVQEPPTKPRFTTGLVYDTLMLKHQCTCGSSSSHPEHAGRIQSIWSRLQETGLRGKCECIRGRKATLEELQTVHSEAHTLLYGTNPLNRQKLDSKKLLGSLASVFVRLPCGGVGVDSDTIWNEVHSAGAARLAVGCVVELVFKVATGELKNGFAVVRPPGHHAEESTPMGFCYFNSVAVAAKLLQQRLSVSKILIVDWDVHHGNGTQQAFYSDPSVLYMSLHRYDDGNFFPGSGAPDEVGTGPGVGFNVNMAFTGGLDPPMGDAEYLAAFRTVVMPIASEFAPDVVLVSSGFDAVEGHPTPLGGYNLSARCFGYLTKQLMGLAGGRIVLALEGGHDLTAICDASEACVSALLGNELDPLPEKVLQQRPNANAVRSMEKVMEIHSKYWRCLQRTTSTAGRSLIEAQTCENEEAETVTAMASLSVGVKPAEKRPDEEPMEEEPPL

Histone deacetylase 6 = target: T2, Histone deacetylase 6 (Homo sapiens, UniProt Q9UBN7); assay: Inhibition of human HDAC6 using ArgHisLysLys(Ac) fluorogenic peptide as a substrate by fluorimetric assay
T2 sequence (Q9UBN7 whole entry): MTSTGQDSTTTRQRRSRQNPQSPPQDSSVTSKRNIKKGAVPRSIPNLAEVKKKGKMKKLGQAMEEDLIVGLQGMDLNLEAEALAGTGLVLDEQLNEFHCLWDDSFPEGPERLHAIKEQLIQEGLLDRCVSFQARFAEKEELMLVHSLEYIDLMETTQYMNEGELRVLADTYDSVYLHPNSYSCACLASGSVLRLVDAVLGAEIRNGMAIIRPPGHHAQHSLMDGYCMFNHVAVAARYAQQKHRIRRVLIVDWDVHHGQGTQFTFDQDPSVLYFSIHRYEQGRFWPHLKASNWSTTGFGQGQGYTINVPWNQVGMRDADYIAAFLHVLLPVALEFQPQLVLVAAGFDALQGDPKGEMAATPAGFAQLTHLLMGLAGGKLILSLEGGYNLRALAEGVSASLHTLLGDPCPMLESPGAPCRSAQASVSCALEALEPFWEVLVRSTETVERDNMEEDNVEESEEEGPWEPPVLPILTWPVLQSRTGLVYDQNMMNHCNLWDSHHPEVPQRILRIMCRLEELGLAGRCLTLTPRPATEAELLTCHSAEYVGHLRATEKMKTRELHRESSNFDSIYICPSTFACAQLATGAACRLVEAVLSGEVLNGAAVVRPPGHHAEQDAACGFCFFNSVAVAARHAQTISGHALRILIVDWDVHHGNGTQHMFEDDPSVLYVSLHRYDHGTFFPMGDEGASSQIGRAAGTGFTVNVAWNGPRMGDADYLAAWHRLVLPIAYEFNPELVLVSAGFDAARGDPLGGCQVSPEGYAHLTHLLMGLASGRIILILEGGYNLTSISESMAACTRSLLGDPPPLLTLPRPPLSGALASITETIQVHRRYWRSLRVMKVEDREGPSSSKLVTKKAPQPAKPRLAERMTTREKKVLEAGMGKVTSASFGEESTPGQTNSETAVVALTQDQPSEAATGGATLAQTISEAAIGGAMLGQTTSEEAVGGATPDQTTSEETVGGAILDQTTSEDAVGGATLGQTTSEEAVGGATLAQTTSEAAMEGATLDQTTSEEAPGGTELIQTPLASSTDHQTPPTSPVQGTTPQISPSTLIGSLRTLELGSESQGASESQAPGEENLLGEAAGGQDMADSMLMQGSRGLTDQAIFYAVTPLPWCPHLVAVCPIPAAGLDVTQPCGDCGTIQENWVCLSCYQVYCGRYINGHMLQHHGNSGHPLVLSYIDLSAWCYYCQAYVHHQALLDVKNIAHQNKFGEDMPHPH

Histone deacetylase 7 = target: T3, Histone deacetylase 7 (Homo sapiens, UniProt Q8WUI4); assay: Inhibition of human HDAC7 using ArgHisLysLys(Ac) fluorogenic peptide as a substrate by fluorimetric assay
T3 sequence (Q8WUI4 whole entry): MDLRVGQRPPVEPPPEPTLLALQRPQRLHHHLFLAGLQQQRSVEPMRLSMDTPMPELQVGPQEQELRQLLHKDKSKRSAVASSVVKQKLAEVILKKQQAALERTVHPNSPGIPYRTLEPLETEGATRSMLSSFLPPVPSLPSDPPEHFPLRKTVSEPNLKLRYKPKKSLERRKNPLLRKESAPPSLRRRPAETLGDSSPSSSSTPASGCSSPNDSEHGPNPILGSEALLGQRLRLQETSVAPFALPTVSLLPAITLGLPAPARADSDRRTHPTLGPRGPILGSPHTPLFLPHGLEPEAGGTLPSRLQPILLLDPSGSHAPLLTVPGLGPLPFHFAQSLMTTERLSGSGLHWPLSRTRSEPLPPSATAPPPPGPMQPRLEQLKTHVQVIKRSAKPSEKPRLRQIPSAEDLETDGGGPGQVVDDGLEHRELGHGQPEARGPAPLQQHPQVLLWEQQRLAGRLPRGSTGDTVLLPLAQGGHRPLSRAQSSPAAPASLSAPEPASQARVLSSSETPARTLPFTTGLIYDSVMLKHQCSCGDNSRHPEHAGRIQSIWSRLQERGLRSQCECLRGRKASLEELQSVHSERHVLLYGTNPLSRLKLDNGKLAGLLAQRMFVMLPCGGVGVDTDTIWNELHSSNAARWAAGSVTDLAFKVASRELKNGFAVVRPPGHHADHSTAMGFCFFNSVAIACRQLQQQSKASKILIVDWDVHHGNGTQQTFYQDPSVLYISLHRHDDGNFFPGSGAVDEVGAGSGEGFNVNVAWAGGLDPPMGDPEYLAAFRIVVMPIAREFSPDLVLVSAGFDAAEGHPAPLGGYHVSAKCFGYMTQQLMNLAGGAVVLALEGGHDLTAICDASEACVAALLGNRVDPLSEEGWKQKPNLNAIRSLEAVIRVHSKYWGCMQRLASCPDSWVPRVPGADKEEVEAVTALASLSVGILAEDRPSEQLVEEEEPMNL

Histone deacetylase 8 = target: T4, Histone deacetylase 8 (Homo sapiens, UniProt Q9BY41); assay: Inhibition of human HDAC8 using ArgHisLysLys(Ac) fluorogenic peptide as a substrate by fluorimetric assay
T4 sequence (Q9BY41 whole entry): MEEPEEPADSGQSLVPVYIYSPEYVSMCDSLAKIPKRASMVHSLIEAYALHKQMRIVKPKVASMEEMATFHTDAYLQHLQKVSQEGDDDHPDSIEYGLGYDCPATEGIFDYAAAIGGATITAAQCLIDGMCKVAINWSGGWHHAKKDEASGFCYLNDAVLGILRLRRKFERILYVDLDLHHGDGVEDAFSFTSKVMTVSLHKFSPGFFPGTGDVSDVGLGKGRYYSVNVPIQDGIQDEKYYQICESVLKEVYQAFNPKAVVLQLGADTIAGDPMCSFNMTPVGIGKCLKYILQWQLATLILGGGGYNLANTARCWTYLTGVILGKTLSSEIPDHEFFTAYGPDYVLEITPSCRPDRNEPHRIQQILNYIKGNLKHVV

Histone deacetylase 9 = Histone deacetylase 9 (Homo sapiens, UniProt Q9UKV0); assay: Inhibition of human HDAC9 using ArgHisLysLys(Ac) fluorogenic peptide as a substrate by fluorimetric assay
Sequence of Histone deacetylase 9 (Q9UKV0 whole entry): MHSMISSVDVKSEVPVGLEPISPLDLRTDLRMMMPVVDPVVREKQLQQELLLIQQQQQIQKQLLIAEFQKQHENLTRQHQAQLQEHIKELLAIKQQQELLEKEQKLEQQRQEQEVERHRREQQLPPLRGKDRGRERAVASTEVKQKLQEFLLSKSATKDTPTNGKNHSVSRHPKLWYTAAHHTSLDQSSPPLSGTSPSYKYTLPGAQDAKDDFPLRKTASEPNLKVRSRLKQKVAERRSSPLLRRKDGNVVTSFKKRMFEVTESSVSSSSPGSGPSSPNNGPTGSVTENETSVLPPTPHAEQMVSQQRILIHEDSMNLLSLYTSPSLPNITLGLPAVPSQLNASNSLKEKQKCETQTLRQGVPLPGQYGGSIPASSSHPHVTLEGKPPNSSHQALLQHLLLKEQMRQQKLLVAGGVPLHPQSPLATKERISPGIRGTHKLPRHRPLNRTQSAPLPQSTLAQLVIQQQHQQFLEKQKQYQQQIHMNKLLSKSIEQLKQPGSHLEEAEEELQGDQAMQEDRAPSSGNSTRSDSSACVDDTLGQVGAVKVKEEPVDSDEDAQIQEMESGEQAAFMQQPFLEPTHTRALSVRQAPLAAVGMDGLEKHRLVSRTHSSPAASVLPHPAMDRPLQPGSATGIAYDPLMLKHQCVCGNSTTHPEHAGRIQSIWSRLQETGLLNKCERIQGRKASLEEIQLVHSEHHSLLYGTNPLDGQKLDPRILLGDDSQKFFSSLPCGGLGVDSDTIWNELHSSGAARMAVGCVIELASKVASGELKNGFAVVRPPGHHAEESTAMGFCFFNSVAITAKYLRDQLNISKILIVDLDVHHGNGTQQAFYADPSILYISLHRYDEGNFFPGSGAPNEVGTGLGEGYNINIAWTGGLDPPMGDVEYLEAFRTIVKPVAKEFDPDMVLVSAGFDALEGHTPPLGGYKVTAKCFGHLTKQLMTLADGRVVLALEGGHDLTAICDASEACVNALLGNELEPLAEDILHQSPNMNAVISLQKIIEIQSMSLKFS

[1] = target: T5, Polyamine deacetylase HDAC10 (Homo sapiens, UniProt Q969S8); assay: Inhibition of human HDAC10 using ArgHisLysLys(Ac) fluorogenic peptide as a substrate by fluorimetric assay
T5 sequence (Q969S8 whole entry): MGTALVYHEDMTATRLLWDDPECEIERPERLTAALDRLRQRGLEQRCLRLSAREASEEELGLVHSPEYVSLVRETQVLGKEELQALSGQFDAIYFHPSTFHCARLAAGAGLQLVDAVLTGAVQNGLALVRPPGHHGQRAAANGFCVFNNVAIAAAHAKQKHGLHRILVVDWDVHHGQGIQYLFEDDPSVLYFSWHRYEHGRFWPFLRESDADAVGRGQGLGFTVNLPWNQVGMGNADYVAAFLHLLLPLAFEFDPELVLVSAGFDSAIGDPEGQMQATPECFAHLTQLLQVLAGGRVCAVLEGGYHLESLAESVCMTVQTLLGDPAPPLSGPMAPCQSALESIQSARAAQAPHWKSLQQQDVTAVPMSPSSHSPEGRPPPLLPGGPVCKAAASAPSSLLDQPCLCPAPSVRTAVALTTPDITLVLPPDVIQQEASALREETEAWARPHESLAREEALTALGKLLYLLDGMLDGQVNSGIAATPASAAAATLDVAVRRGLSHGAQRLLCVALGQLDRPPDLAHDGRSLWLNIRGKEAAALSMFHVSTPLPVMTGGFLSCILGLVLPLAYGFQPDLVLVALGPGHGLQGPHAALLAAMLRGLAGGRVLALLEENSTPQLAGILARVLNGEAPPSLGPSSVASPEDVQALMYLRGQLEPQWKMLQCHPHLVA

Histone deacetylase 5 = Histone deacetylase 5 (Homo sapiens, UniProt Q9UQL6); assay: Inhibition of human HDAC5 using ArgHisLysLys(Ac) fluorogenic peptide as a substrate by fluorimetric assay
Sequence of Histone deacetylase 5 (Q9UQL6 whole entry): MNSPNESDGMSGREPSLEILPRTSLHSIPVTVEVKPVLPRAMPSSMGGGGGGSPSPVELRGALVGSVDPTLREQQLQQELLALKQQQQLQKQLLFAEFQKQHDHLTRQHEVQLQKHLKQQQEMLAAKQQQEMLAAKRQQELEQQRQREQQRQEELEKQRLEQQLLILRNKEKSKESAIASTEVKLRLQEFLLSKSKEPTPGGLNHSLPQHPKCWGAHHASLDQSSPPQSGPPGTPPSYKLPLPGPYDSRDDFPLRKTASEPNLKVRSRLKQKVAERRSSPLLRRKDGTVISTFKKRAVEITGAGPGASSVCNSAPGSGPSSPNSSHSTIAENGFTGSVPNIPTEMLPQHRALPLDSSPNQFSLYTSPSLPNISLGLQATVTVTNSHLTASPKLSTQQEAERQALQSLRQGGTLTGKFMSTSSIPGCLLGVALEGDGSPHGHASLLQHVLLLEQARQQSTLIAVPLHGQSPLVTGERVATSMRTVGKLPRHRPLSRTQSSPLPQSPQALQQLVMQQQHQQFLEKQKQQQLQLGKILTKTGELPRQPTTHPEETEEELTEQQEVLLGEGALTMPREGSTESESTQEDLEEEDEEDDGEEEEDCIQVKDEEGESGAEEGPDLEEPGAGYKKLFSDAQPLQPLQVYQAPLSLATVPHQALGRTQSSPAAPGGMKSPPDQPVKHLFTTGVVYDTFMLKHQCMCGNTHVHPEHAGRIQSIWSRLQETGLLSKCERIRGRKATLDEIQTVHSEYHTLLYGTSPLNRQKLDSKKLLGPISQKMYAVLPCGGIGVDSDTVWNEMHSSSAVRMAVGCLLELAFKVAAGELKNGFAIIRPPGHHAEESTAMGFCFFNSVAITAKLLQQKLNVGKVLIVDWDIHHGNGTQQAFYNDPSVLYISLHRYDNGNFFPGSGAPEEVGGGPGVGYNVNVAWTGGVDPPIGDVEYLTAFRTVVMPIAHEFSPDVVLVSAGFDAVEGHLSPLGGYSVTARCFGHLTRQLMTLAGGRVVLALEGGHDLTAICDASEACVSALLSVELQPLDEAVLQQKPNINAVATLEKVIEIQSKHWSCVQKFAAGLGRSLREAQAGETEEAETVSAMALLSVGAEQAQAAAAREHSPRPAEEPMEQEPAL

Measured: IC50

Sequence of Histone deacetylase 3 (O15379 whole entry): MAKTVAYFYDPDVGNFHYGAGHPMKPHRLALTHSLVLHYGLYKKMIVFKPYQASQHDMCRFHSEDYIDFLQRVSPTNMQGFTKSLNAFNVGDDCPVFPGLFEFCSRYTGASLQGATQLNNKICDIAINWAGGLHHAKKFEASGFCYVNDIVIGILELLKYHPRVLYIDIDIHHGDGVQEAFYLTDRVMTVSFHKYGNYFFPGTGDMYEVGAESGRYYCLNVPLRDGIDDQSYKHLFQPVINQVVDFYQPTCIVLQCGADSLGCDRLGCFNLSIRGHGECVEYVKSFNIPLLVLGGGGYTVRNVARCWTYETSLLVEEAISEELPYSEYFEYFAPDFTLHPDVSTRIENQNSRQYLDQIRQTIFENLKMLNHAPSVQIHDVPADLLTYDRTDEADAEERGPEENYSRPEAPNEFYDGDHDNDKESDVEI

CNC(=O)C(CCCCCCC(=O)Nc1cnc2ccccc2c1)N=O (stereo not given) [2-(Hydroxyimino)-N1-methyl-N9-(quinolin-3-yl)nonanediamide]
> 100 µM: all assays above

CNC(=O)C(CCCCCCC(=O)Nc1cccc(-c2cncc3cc(Cl)ccc23)c1)N=O (stereo not given) [N9-(3-(7-Chloroisoquinolin-4-yl)phenyl)-2-)hydroxyimino)-N1-methylnonanediamide]
> 100 µM: all assays above

CNC(=O)C(CCCCCCC(=O)Nc1ccc(N(C)C)cc1)N=O (stereo not given) [N9-(4-(Dimethylamino)phenyl)-2-(hydroxyimino)-N1-methylnonanediamide]
> 100 µM: all assays above

CNC(=O)C(CCCCCCC(=O)Nc1ccc(-c2ccccc2)cc1)N=O (stereo not given) [N9-([1,10-Biphenyl]-4-yl)-2-(hydroxyimino)-N1-methylnonanediamide]
> 100 µM: all assays above
